Assay results taken from US9055743B2, “Alpha, beta-unsaturated imines” (BAYER INTELLECTUAL PROPERTY GMBH, priority 2010, dated 2015).

How the values were obtained:
[1] = test system: cat fleas (Ctenocephalides felis, fully sensitive laboratory strain); test: Contact test against fleas in-vitro (CTECFE contact); format: in vivo; conditions: 500 g/ha, after 48 h
Method in brief: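 Test tubes coated from acetone solutions by rotation, top concentration 500 g/ha (500 μg/dm^2) on tube surface, serial 1:5 dilutions. 10-20 CO2-anesthetized adult fleas held at room temperature for 24 and 48 h. Activity scored versus acetone control: knock-down or death of all fleas = 100%.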

Boophilus microplus = Boophilus microplus test (BOOPMI injection); format: in vivo; conditions: 20 μg/animal, injection into the abdomen, after 7 days
Method: Boophilus microplus Test (BOOPMI Injection)
(§1) Solvent: Dimethyl Sulphoxide
To produce a suitable preparation of active compound, 10 mg of active compound are mixed with 0.5 ml of solvent and the concentrate is diluted with solvent to the desired concentration. The solution of active compound is injected into the abdomen (Boophilus microplus), and the animals are transferred into dishes and kept in a climatized room. The activity is assessed by […] of fertile eggs.
After 7 days, the effect in % is determined 100% means that none of the ticks has laid any fertile eggs.

[2] = test system: green peach aphid (Myzus persicae); test: Myzus test (MYZUPE spray treatment); format: in vivo; conditions: 500 g/ha, spray, after 6 days
Method in brief: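 Chinese cabbage leaf discs infested with all aphid stages were sprayed with compound in acetone/DMF with emulsifier, diluted in emulsifier-containing water. Mortality in % assessed after 6 days (100% = all aphids killed).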

Musca domestica = Musca domestica test (MUSCDO); format: in vivo; conditions: 100 ppm, after 2 days
Method: Musca domestica Test (MUSCDO)
as §1
(§2) To produce a suitable preparation of active compound, 10 mg of active compound are mixed with 0.5 ml of dimethyl sulphoxide and the concentrate is diluted with water to the desired concentration. Vessels containing a sponge treated with the active compound preparation of the desired concentration are populated with adult Musca domestica.
After 2 days, the kill in % is determined 100% means that all flies have been killed; 0% means that none of the flies have been killed.

[3] = test system: caterpillars of the army worm (Spodoptera frugiperda); test: Spodoptera frugiperda test (SPODFR spray treatment); format: in vivo; conditions: 500 g/ha, spray, after 7 days
Method in brief: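 Maize leaf discs sprayed with compound formulated in acetone/dimethylformamide plus alkylaryl polyglycol ether emulsifier and diluted in water, then infested with Spodoptera frugiperda caterpillars once dry. Mortality scored after 7 days as % activity, where 100% means all caterpillars killed.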

Lucilia cuprina larvae = test: Lucilia cuprina test (LUCICU); format: in vivo; conditions: 100 ppm, after 2 days
Method: Lucilia cuprina Test (LUCICU)
as §1
as §2, with “horsemeat” for “a sponge”, “about 20 Lucilia cuprina larvae.” for “adult Musca domestica.”
After 2 days, the kill in % is determined. 100% means that all larvae have been killed; 0% means that none of the larvae have been killed.

Ctenocephalides felis = Ctenocephalides felis oral test (CTECFE); format: in vivo; conditions: 100 ppm in citrated cattle blood, after two days
Method: Ctenocephalides Felis Oral Test (CTECFE)
Solvent: 1 Part by Weight of Dimethyl Sulphoxide
To produce a suitable preparation of active compound, 10 mg of active compound are mixed with 0.5 ml of dimethyl sulphoxide. Part of the concentrate is diluted with citrated cattle blood, and the desired concentration is prepared.
About 20 unfed adult fleas (Ctenocephalides felis) are placed into a chamber which is closed at the top and bottom with gauze. A metal cylinder whose bottom end is closed with parafilm is placed onto the chamber. The cylinder contains the blood/active compound preparation, which can be taken up by the fleas through the parafilm membrane. After two days, the kill in % is determined 100% means that all fleas have been killed; 0% means that none of the fleas have been killed.

[4] = test system: Boophilus microplus strain Parkhurst, SP-resistant; test: Boophilus microplus test (DIP); format: in vivo; conditions: 100 ppm, after 7 days
Method: Boophilus microplus Test (DIP) Test Animals: Adult Fat Females of the Boophilus microplus Strain Parkhurst—SP-Resistant) Solvent: Dimethyl Sulphoxide
10 mg of active compound are dissolved in 0.5 ml of dimethyl sulphoxide. To produce a suitable formulation, the active compound solution is diluted with water to the particular desired concentration.
This active compound preparation is pipetted into tubes. 8-10 ticks are transferred into a further tube provided with holes. The tube is dipped into the active compound preparation, with all the ticks being wetted completely. After the liquid has run off, the ticks are transferred to filter discs in plastic dishes and kept in a climatized room. After 7 days, the activity is checked for deposition of fertile eggs. Eggs whose fertility is not visible from the outside are kept in glass tubes in a climatized cupboard until the larvae have hatched. An activity of 100% means that no tick has laid fertile eggs.

[5] = test system: greenhouse red spider mite (Tetranychus urticae); test: Tetranychus test; OP-resistant (TETRUR spray treatment); format: in vivo; conditions: 500 g/ha, spray, after 6 days
Method in brief: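 Bean leaf discs infested with all stages of OP-resistant Tetranychus urticae were sprayed with compound in acetone/DMF with alkylaryl polyglycol ether emulsifier, diluted in emulsifier-water. Mortality was scored after 6 days: 100% means all mites killed, 0% none.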

[6] = test system: larvae of the mustard beetle (Phaedon cochleariae); test: Phaedon test (PHAECO spray treatment); format: in vivo; conditions: 500 g/ha, spray, after 7 days
Method in brief: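 Chinese cabbage leaf discs sprayed with compound formulated in acetone/dimethylformamide with alkylaryl polyglycol ether emulsifier, diluted in emulsifier-containing water to the desired concentration. After drying, discs were populated with mustard beetle larvae.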

[7] = test system: Anopheles gambiae (homocygus kdr); test: Anopheles test (ANPHGB surface treatment); format: in vivo; conditions: 100 mg/m^2, two hours after contact, exposition 30 minutes
Method in brief: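 Compound dissolved in acetone at 2 mg/ml, pipetted onto glazed tile and dried; adult kdr-homozygous mosquitoes exposed on the tile for 30 min. Knock-down (%) read 2 h and mortality (%) 24 h after contact.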

Aedes aegypti = test: Aedes test (AEDSAE surface treatment); format: in vivo; conditions: 100 mg/m^2, two hours after contact, exposition 30 minutes
Method in brief: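 Compound dissolved in acetone (2 mg/ml) and dried onto a glazed tile; adult mosquitoes exposed for 30 minutes. Knock-down % scored at 2 hours and mortality % at 24 hours after contact (100% = all killed).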

[8] = logP determination by HPLC on reversed-phase columns (C18), LC-MS neutral; format: physicochemical; conditions: pH 7.8, HPLC on C18, calibration with alkan-2-ones
Culex quinquefasciatus = test: whole plant or invertebrate; format: in vivo; conditions: 100 mg/m^2, two hours after contact, exposition 30 minutes
Method: Culex Test (CULXFA Surface Treatment) Solvent: Acetone
(§3) To produce a suitable preparation of active compound, the active compound is dissolved in acetone (2 mg/ml). The active compound preparation is pipetted onto a glazed tile and, after drying, adult mosquitoes of the species Culex quinquefasciatus are placed onto the treated tile. The exposition time is 30 minutes.
(§4) Two hours after contact to the treated surface, the knock-down proportion of the test animals in % is determined.
(§5) 24 hours after contact to the treated surface, the mortality in % is determined. Here, 100% means that all mosquitoes have been killed; 0% means that none of the mosquitoes has been killed.

[9] = test system: Anopheles funestus strain FUMOZ-R; format: in vivo; conditions: 100 mg/m^2, two hours after contact, exposition 30 minutes
Method: Anopheles Test (ANPHFU Surface Treatment) Solvent: Acetone
as §3, with “Anopheles funestus strain FUMOZ-R (Hunt et al., Med Vet Entomol. 2005 September; 19(3):271-5)” for “Culex quinquefasciatus”
as §4, §5

Row | SMILES | activity against cat fleas [1] [%] | activity (100% = none of the ticks has laid any fertile eggs) (Boophilus microplus) [%] | activity (aphids killed) [2] [%] | activity (kill in %) (Musca domestica) [%] | activity (caterpillars killed) [3] [%] | activity (kill in %) (Lucilia cuprina larvae) [%] | activity (kill in %) (Ctenocephalides felis) [%] | activity (100% = no tick has laid fertile eggs) [4] [%] | activity (spider mites killed) [5] [%] | activity (beetle larvae killed) [6] [%] | knock-down activity [7] [%] | knock-down activity (Aedes aegypti) [%] | logP [8] | knock-down activity (Culex quinquefasciatus) [%] | knock-down activity [9] [%]
1 | Cc1ccc(N=C2C(=CSc3ccccc3)C(C)c3ccccc32)cc1 (mixture of isomers) [Example 1-5] | 100 | 100 | 100 | 100 | 100 | 100 | 100 | 100 | 100 | 100 | 100 |  |  |  | 
2 | Cc1ccc(N=C2C(=CSc3ccc(F)cc3)CCc3sccc32)cc1 (mixture of isomers) [Example 1-26] | 100 | 100 | 100 | 100 | 100 | 100 | 95 | 100 | 100 | 100 |  |  |  |  | 
3 | Cc1ccc(N=C2C(=CSc3ccc(F)cc3)C(C)c3cccc(F)c32)cc1 (mixture of isomers) [Example 1-27] | 100 | 100 | 100 | 100 | 100 | 100 | 100 | 100 | 100 | 100 | 100 | 100 |  |  | 
4 | Cc1ccc(N=C2C(=CSc3ccc(F)cc3)CCc3cc(F)cc(F)c32)cc1 (mixture of isomers) [Example 1-33] | 100 | 100 | 80 | 80 | 100 | 100 | 95 | 100 |  | 100 |  |  |  |  | 
5 | CC1C(=CSc2ccccc2)C(=Nc2ccc(Cl)cc2)c2ccccc21 (stereo not drawn) [Example 1-11] |  |  |  |  |  |  |  |  |  |  |  |  | LC-MS (neutral)*: logP = 6.38, (M + H)^+ = 376 |  | 
6 | Cc1ccc(N=C2C(=CSc3ccc(F)cc3)COc3ccccc32)cc1 [Example 1-36] | 100 | 100 | 100 |  | 100 | 100 | 90 |  | 100 | 100 | 100 | 100 |  | 100 | 
7 | Cc1ccc(N=C2CCCCCC2=CSc2ccccc2)cc1 [Example 1-38] | 100 |  |  |  |  |  |  |  |  |  | 100 | 100 | LC-MS (neutral)*: logP = 6.20, (M + H)^+ = 322 |  | 
8 | Cc1ccc(N=C2C(=CSc3ccc(F)cc3)C3CCC2C3)cc1 (stereo not drawn) [Example 1-40] |  |  |  |  |  |  |  |  | 100 | 100 | 100 | 100 |  |  | 100
9 | Cc1ccc(N=C2C(=CSc3ccc(F)cc3)CCc3cc(C)ccc32)cc1 [Example 1-46] | 100 |  | 100 |  | 100 |  |  |  | 100 | 100 | 100 | 100 |  | 100 | 
10 | CC(=O)Nc1ccc2c(c1)CCC(=CSc1ccc(F)cc1)C2=Nc1ccc(C)cc1 [Example 1-48] |  |  |  |  |  |  |  |  |  |  |  |  | LC-MS (neutral)*: logP = 4.64, (M + H)^+ = 431. |  | 
11 | Cc1ccc(N=C2C(=CSc3ccc(F)cc3)CCCC2=Cc2ccccc2)cc1 [Example 1-56] |  |  |  |  |  |  |  |  |  |  |  |  | LC-MS (neutral)*: logP = 7.01, (M + H)^+ = 414. |  | 
12 | Cc1ccc(N=C2C(=CSc3ccc(F)cc3)COc3cc(F)ccc32)cc1 [Example 1-58] | 100 |  | 100 |  | 100 |  |  |  | 100 | 100 | 100 | 100 |  | 100 | 
13 | Cc1ccc(N=C2C(=CSc3ccccc3)C3CCC2C3)cc1 (stereo not drawn) [Example 1-100] |  |  | 100 |  | 100 |  |  |  |  | 100 | 100 | 100 |  |  | 100
